# In patent publication US20070049564A1 (Wyeth, priority 2005, published 2007):
# Tests used:
# Assay in all cases: MIC, broth microdilution
# E. coli GC 2233 = conditions: Escherichia coli, GC2233, E. coli GC 2233
# E. coli GC 2270 = conditions: Escherichia coli
# E. coli GC 2271 = conditions: Escherichia coli, GC2271, E. coli GC 2271
# E. coli GC 2272 = tested on: E. coli GC 2272
# E. coli GC 4560 = conditions: Escherichia coli, GC4560, E. coli GC 4560
# E. coli GC 6465 = conditions: Escherichia coli, GC6465, E. coli GC 6465
# E. coli GC 3226 = tested on: E. coli GC 3226
# E. coli GC 2203 = tested on: E. coli GC 2203
# E. coli GC 1073 = tested on: E. coli GC 1073
# P. aeruginosa GC 2214 = tested on: P. aeruginosa GC 2214
# S. aureus GC 1131 = tested on: S. aureus GC 1131
# S. aureus GC 6467 = tested on: S. aureus GC 6467
# S. aureus GC 1079 = tested on: S. aureus GC 1079
# S. aureus GC 6335 = tested on: S. aureus GC 6335
# S. aureus GC 6469 = tested on: S. aureus GC 6469
# S. epidermidis GC 4935 = tested on: S. epidermidis GC 4935
# E. faecalis GC 2265 = tested on: E. faecalis GC 2265
# E. faecalis GC 2267 = tested on: E. faecalis GC 2267
# Protocol: Antimicrobial susceptibility testing. The in vitro activities of the antibiotics are determined by the broth microdilution method as recommended by the National Committee for Clinical Laboratory Standards (NCCLS) (1). Mueller-Hinton II broth (MHBII)(BBL Cockeysville, Md.) is the medium employed in the testing procedures. Microtiter plates containing serial dilutions of each antimicrobial agent are inoculated with each organism to yield the appropriate density (10^5 CFU/ml) in a 100 μl final volume. The plates are incubated for 18-22 hours at 35° C. in ambient air.
# Representative compounds were first incubated in mouse serum for an hour prior to the in vitro testing against a panel of selected gram-positive and gram-negative bacteria strains. All compounds were also pre-incubated in water for an hour prior to testing as control.
# E. faecium GC 2243 = tested on: E. faecium GC 2243
# c. albicans GC 3066 = tested on: c. albicans GC 3066
smiles,measurement,setting,value
"CCCN(CC(=O)Nc1cc(N(C)C)c2c(c1O)C(=O)C1=C(O)[C@]3(O)C(=O)C(C(N)=O)=C(O)[C@@H](N(C)C)[C@@H]3C[C@@H]1C2)C(=O)OCOC(=O)c1ccc(OC)cc1 [Example 6, ({[(2-{[(5aR,6aS,7S,10aS)-9-(aminocarbonyl)-4,7-bis(dimethylamino)-1,8,10a,11-tetrahydroxy-10,12-dioxo-5,5a,6,6a,7,10,10a,12-octahydrotetracen-2-yl]amino}-2-oxoethyl)(propyl)amino]carbonyl}oxy)methyl 4-methoxybenzoate]",MIC,E. coli GC 2233; Mouse Serum pre-incubation,2 µg/mL
same,MIC,E. coli GC 2233; Water pre-incubation,16 µg/mL
same,MIC,"E. coli GC 2270; GC2270, E. coli GC 2270, Mouse Serum pre-incubation",1 µg/mL
same,MIC,"E. coli GC 2270; GC2270, E. coli GC 2270, Water pre-incubation",8 µg/mL
same,MIC,E. coli GC 2271; Mouse Serum pre-incubation,1 µg/mL
same,MIC,E. coli GC 2271; Water pre-incubation,8 µg/mL
same,MIC,"E. coli GC 2272; Escherichia coli, GC2272, E. coli GC 2272, Mouse Serum pre-incubation",1 µg/mL
same,MIC,"E. coli GC 2272; Escherichia coli, GC2272, E. coli GC 2272, Water pre-incubation",16 µg/mL
same,MIC,E. coli GC 4560; Mouse Serum pre-incubation,0.25 µg/mL
same,MIC,E. coli GC 4560; Water pre-incubation,2 µg/mL
same,MIC,E. coli GC 6465; Mouse Serum pre-incubation,4 µg/mL
same,MIC,E. coli GC 6465; Water pre-incubation,> 64 µg/mL
same,MIC,"E. coli GC 3226; Escherichia coli, GC3226, E. coli GC 3226, Mouse Serum pre-incubation",2 µg/mL
same,MIC,"E. coli GC 3226; Escherichia coli, GC3226, E. coli GC 3226, Water pre-incubation",16 µg/mL
same,MIC,"E. coli GC 2203; Escherichia coli, GC2203, E. coli GC 2203, Mouse Serum pre-incubation",2 µg/mL
same,MIC,"E. coli GC 2203; Escherichia coli, GC2203, E. coli GC 2203, Water pre-incubation",16 µg/mL
same,MIC,"E. coli GC 1073; Escherichia coli, GC1073, E. coli GC 1073, Mouse Serum pre-incubation",2 µg/mL
same,MIC,"E. coli GC 1073; Escherichia coli, GC1073, E. coli GC 1073, Water pre-incubation",16 µg/mL
same,MIC,"P. aeruginosa GC 2214; Pseudomonas aeruginosa, GC2214, P. aeruginosa GC 2214, Mouse Serum pre-incubation",32 µg/mL
same,MIC,"P. aeruginosa GC 2214; Pseudomonas aeruginosa, GC2214, P. aeruginosa GC 2214, Water pre-incubation",> 64 µg/mL
same,MIC,"S. aureus GC 1131; Staphylococcus aureus, GC1131, S. aureus GC 1131, Mouse Serum pre-incubation",0.5 µg/mL
same,MIC,"S. aureus GC 1131; Staphylococcus aureus, GC1131, S. aureus GC 1131, Water pre-incubation",1 µg/mL
same,MIC,"S. aureus GC 6467; Staphylococcus aureus, GC6467, S. aureus GC 6467, Mouse Serum pre-incubation",2 µg/mL
same,MIC,"S. aureus GC 6467; Staphylococcus aureus, GC6467, S. aureus GC 6467, Water pre-incubation",4 µg/mL
same,MIC,"S. aureus GC 1079; Staphylococcus aureus, GC1079, S. aureus GC 1079, Mouse Serum pre-incubation",2 µg/mL
same,MIC,"S. aureus GC 1079; Staphylococcus aureus, GC1079, S. aureus GC 1079, Water pre-incubation",4 µg/mL
same,MIC,"S. aureus GC 6335; Staphylococcus aureus, GC6335, S. aureus GC 6335, Mouse Serum pre-incubation",0.5 µg/mL
same,MIC,"S. aureus GC 6335; Staphylococcus aureus, GC6335, S. aureus GC 6335, Water pre-incubation",2 µg/mL
same,MIC,"S. aureus GC 6469; Staphylococcus aureus, GC6469, S. aureus GC 6469, Mouse Serum pre-incubation",2 µg/mL
same,MIC,"S. aureus GC 6469; Staphylococcus aureus, GC6469, S. aureus GC 6469, Water pre-incubation",4 µg/mL
same,MIC,"S. epidermidis GC 4935; Staphylococcus epidermidis, GC4935, S. epidermidis GC 4935, Mouse Serum pre-incubation",1 µg/mL
same,MIC,"S. epidermidis GC 4935; Staphylococcus epidermidis, GC4935, S. epidermidis GC 4935, Water pre-incubation",4 µg/mL
same,MIC,"E. faecalis GC 2265; Enterococcus faecalis, GC2265, E. faecalis GC 2265, Mouse Serum pre-incubation",2 µg/mL
same,MIC,"E. faecalis GC 2265; Enterococcus faecalis, GC2265, E. faecalis GC 2265, Water pre-incubation",4 µg/mL
same,MIC,"E. faecalis GC 2267; Enterococcus faecalis, GC2267, E. faecalis GC 2267, Mouse Serum pre-incubation",1 µg/mL
same,MIC,"E. faecalis GC 2267; Enterococcus faecalis, GC2267, E. faecalis GC 2267, Water pre-incubation",4 µg/mL
same,MIC,"E. faecium GC 2243; Enterococcus faecium, GC2243, E. faecium GC 2243, Mouse Serum pre-incubation",0.5 µg/mL
same,MIC,"E. faecium GC 2243; Enterococcus faecium, GC2243, E. faecium GC 2243, Water pre-incubation",2 µg/mL
same,MIC,"c. albicans GC 3066; Candida albicans, GC3066",> 64 µg/mL
same,MIC,"c. albicans GC 3066; c. albicans GC 3066, Water pre-incubation",>64 UG/ML
"CCCCN(CC(=O)Nc1cc(N(C)C)c2c(c1O)C(=O)C1=C(O)[C@]3(O)C(=O)C(C(N)=O)=C(O)[C@@H](N(C)C)C3CC1C2)C(=O)OCc1oc(=O)oc1C (stereo partly drawn) [Example 109, (5-methyl-2-oxo-1,3-dioxol-4-yl)methyl 2-{[(7S,10aS)-9-(aminocarbonyl)-4,7-bis(dimethylamino)-1,8,10a,11-tetrahydroxy-10,12-dioxo-5,5a,6,6a,7,10,10a,12-octahydrotetracen-2-yl]amino}-2-oxoethyl(butyl)carbamate]",MIC,"E. coli GC 2270; GC2270, pre-incubation in mouse serum",0.25 µg/mL
same,MIC,"E. coli GC 2272; Escherichia coli, GC2272, pre-incubation in mouse serum",0.25 µg/mL
same,MIC,E. coli GC 2272; pre-incubation in mouse serum,0.50 UG/ML
same,MIC,"E. coli GC 3226; Escherichia coli, GC3226, pre-incubation in mouse serum",0.5 µg/mL
same,MIC,E. coli GC 3226; pre-incubation in mouse serum,1 UG/ML
same,MIC,"E. coli GC 2203; Escherichia coli, GC2203, pre-incubation in mouse serum",0.5 µg/mL
same,MIC,"E. coli GC 2203; Escherichia coli, GC2203, pre-incubation in water",1 µg/mL
same,MIC,E. coli GC 2203; pre-incubation in water,2 UG/ML
same,MIC,"E. coli GC 1073; Escherichia coli, GC1073, pre-incubation in mouse serum",0.5 µg/mL
same,MIC,E. coli GC 1073; pre-incubation in mouse serum,1 UG/ML
same,MIC,"P. aeruginosa GC 2214; Pseudomonas aeruginosa, GC2214, pre-incubation in mouse serum",16 µg/mL
same,MIC,"P. aeruginosa GC 2214; Pseudomonas aeruginosa, GC2214, pre-incubation in water",> 64 µg/mL
same,MIC,P. aeruginosa GC 2214; pre-incubation in mouse serum,32 UG/ML
same,MIC,"S. aureus GC 1131; Staphylococcus aureus, GC1131, pre-incubation in mouse serum",1 µg/mL
same,MIC,"S. aureus GC 1131; Staphylococcus aureus, GC1131, pre-incubation in water",2 µg/mL
same,MIC,S. aureus GC 1131; pre-incubation in water,4 UG/ML
same,MIC,"S. aureus GC 6467; Staphylococcus aureus, GC6467, pre-incubation in mouse serum",2 µg/mL
same,MIC,"S. aureus GC 6467; Staphylococcus aureus, GC6467, pre-incubation in water",4 µg/mL
same,MIC,S. aureus GC 6467; pre-incubation in water,8 UG/ML
same,MIC,"S. aureus GC 1079; Staphylococcus aureus, GC1079, pre-incubation in mouse serum",2 µg/mL
same,MIC,"S. aureus GC 1079; Staphylococcus aureus, GC1079, pre-incubation in water",4 µg/mL
same,MIC,S. aureus GC 1079; pre-incubation in water,8 UG/ML
same,MIC,"S. aureus GC 6335; Staphylococcus aureus, GC6335, pre-incubation in mouse serum",2 µg/mL
same,MIC,"S. aureus GC 6335; Staphylococcus aureus, GC6335, pre-incubation in water",4 µg/mL
same,MIC,S. aureus GC 6335; pre-incubation in mouse serum,1 UG/ML
same,MIC,"S. aureus GC 6469; Staphylococcus aureus, GC6469, pre-incubation in mouse serum",1 µg/mL
same,MIC,S. aureus GC 6469; pre-incubation in mouse serum,2 UG/ML
same,MIC,"S. epidermidis GC 4935; Staphylococcus epidermidis, GC4935, pre-incubation in mouse serum",2 µg/mL
same,MIC,"S. epidermidis GC 4935; Staphylococcus epidermidis, GC4935, pre-incubation in water",4 µg/mL
same,MIC,S. epidermidis GC 4935; pre-incubation in water,8 UG/ML
same,MIC,"E. faecalis GC 2265; Enterococcus faecalis, GC2265, pre-incubation in mouse serum",1 µg/mL
same,MIC,"E. faecalis GC 2265; Enterococcus faecalis, GC2265, pre-incubation in water",2 µg/mL
same,MIC,E. faecalis GC 2265; pre-incubation in water,4 UG/ML
same,MIC,"E. faecalis GC 2267; Enterococcus faecalis, GC2267, pre-incubation in mouse serum",1 µg/mL
same,MIC,"E. faecalis GC 2267; Enterococcus faecalis, GC2267, pre-incubation in water",2 µg/mL
same,MIC,E. faecalis GC 2267; pre-incubation in water,4 UG/ML
same,MIC,"E. faecium GC 2243; Enterococcus faecium, GC2243, pre-incubation in mouse serum",0.5 µg/mL
same,MIC,"E. faecium GC 2243; Enterococcus faecium, GC2243, pre-incubation in water",0.5 µg/mL
same,MIC,E. faecium GC 2243; pre-incubation in water,1 UG/ML
same,MIC,"c. albicans GC 3066; Candida albicans, GC3066",> 64 µg/mL
same,MIC,c. albicans GC 3066; pre-incubation in water,>64 UG/ML
